Experimental data as given in patent US20120010272A1, “RNA Interference Mediated Inhibition of Apoptosis Signal-Regulating Kinase 1 (ASK1) Gene Expression Using Short Interfering Nucleic Acid (siNA)” (Merck Sharp & Dohme Corp., priority 2009, published 2012).

What was measured:
Type in all cases: cell-based
ASK1 mRNA [1] = assay: ASK1 mRNA knock-down by siNA in human A549 cells (RNAiMax transfection, Taqman RT-PCR); conditions: for % KD Human: 10 nM siNA, 24 hrs post-transfection, vs non-targeting control, GAPDH-normalized, mean ± S.D.; for % KD Human / % KD ASK-1 10 nM: two experiments; for % KD ASK-1 mRNA at 10 nM: mean ± S.D. (Table 5); for % KD ASK-1 10 nM: mean ± standard deviation (Table 6)
Method: A549 (human; ATCC cat #CCL-185): Cells were cultured at 37° C. in the presence of 5% CO2 and grown in Ham's F12K medium with 2 mM L-glutamine adjusted to contain 1.5 g/L sodium bicarbonate and supplemented with fetal bovine serum at a final concentration of 10%, 100 μg/mL of streptomycin, and 100 U/mL penicillin.
(§1) Cells were plated in all wells of a tissue-culture treated, 96-well plate at a final count of 5000 cells/well (A549 cell line) and 3,500 cells/well (Hepal-6 cell line) in 100 μL of the appropriate culture media. The cells were cultured for 24 hours after plating at 37° C. in the presence of 5% CO2.
(§2) After 24 hours, complexes containing siNA and RNAiMax were created as follows: A solution of RNAiMax diluted 33-fold in OPTI-MEM was prepared. In parallel, solutions of the siNAs for testing were prepared to a final concentration of 120 nM in OPTI-MEM. After incubation of RNAiMax/OPTI-MEM solution at room temperature for 5 min, an equal volume of the siRNA solution and the RNAiMax solution were added together for each of the siNAs.
(§3) This solution was incubated at room temperature for 20 minutes. After incubation, 20 uL of the solution was added to each of the relevant wells. The final concentration of siNA in each well was 10 nM and the final volume of RNAiMax in each well was 0.3 ul.
(§4) The time of incubation with the RNAiMax-siNA complexes was 24 hours and there was no change in media between transfection and harvesting, unless otherwise indicated.
(§5) RNA was extracted from a 96-well plate using the TaqMan® Gene Expression Cells-to-CT™ Kit (Cat #4399002) with a modified protocol. Briefly, a 60 uL (1 plate) or 110 uL (2 plates) of the Lysis Solution with DNase I was dispensed into each well of the Lysis Buffer Plate (twin.tec full skirt plate). The lysis buffer and stop plates were stored at 4° C. until the cells were washed.
(§6) The plate was spun at 1100 rpm for 5 minutes. The culture medium was aspirated and discarded from the wells of the culture plate. The lysis was performed automatically using a BioMek FX instrument and method. After the Biomek method was completed, the lysis plate was incubated for 2 min. at room temperature. The lysis plate can be stored for 2 hours at 4° C., or at −20° C. or −80° C. for two months.
(§7) Each well of the reverse transcription plate required 10 uL of 2× reverse transcriptase Buffer, 1 uL of 20× reverse transcription enzyme and 2 uL of nuclease-free water. The reverse transcription master mix was prepared by mixing 2× reverse transcription buffer, 20× reverse transcription enzyme mix, and nuclease-free water. 13 uL of the reverse transcription master mix was dispensed into each well of the reverse transcription plate (semi-skirted). A separate reverse transcription plate was prepared for each cell plate. The plate was loaded onto a Biomek NX or Biomek FX Dual-96 and the Biomek method was run. The program is programmed to automatically added 7 uL of lysate from the cell lysis procedure described above into each well of the reverse transcription plate. The plate is sealed and spun on a centrifuge (1000 rpm for 30 seconds) to settle the contents to the bottom of the reverse transcription plate. The plate is placed in a thermocycler at 37° C. for 60 min, 95° C. for 5 min, and 4° C. until the plate is removed from the thermocycler. Upon removal, if not used immediately, the plate was frozen at −20° C.
(§8) A series of probes and primers were used to detect the various mRNA transcripts of the genes of ASK1, ASK2, and GAPDH in human cell lines and ASK1 and GAPDH in mouse cell lines. All Taqman probes and primers for the experiments were supplied as pre-validated sets by ABI (see Table 2).
(§9) The assays were performed on an ABI 7900 instrument, according to the manufacturer's instructions. A TaqMan Gene Expression Master Mix (provided in the Cells-to-CT™, Applied Biosystems, Cat #4399002) was used. […]

ASK1 mRNA [2] = assay: ASK1 mRNA knock-down by siNA in mouse Hepa1-6 cells (RNAiMax transfection, Taqman RT-PCR); conditions: 10 nM siNA, 24 hrs post-transfection, vs non-targeting control, GAPDH-normalized, mean ± S.D., two experiments
Method: Hepal-6 (murine; ATCC cat #CRL-1830): Cells were cultured at 37° C. in the presence of 5% CO2 and grown in Dulbecco's modified Eagle's medium (DMEM) with 4 mM L-glutamine adjusted to contain 1.5 g/L sodium bicarbonate and 4.5 g/L glucose and supplemented with 10% of fetal bovine serum, 100 μg/mL of streptomycin, and 100 U/mL penicillin.
as §1, §2, §3, §4, §5, §6, §7, §8, §9

ASK1 mRNA [3] = assay: ASK1 mRNA knock-down by siNA in human A549 cells (RNAiMax transfection, Taqman RT-PCR); conditions: 12 concentrations 0.083 fM to 30 nM, mean ± S.D.
[4] = system: mRNA transcript of human ASK2; assay: ASK2 specificity screen: effect of ASK1 siNAs on human ASK2 mRNA in A549 cells; conditions: 1 nM siNA, three independent experiments, mean ± standard deviation
Method: A549 cells were plated in all wells of a tissue-culture treated, 96-well plate at a final count of 5,000 cells/well in 100 μL of appropriate culture media. Cells were cultured for 24 hours after plating at 37° C. in the presence of 5% CO2.
as §2, with “follows.” for “follows:”, “siRNAs” for “siNAs”, “12” for “120”, “siNA” for “siRNA”, “siNAs. […] This solution was incubated at room temperature for 20 minutes. After incubation, 20 uL of the solution was added to each of the relevant wells. The final concentration of siNA in each well was 1 nM and the final volume of RNAiMax in each well was 0.3 uL. The time of incubation with the RNAiMax-siNA complexes was 24 hours.” for “siNAs.”
as §5, §6, §7, §8
The assays were performed on an ABI 7900 instrument, according to the manufacturer's instructions. A TaqMan Gene Expression Master Mix (provided in the Cells-to-CT™, Applied Biosystems, Cat #4399002) was used. The PCR reactions were carried out at 50° C. for 2 min, 95° C. for 10 min followed by 40 cycles at 95° C. for 15 secs and 60° C. for 1 min.
The expression level of the gene of interest and % knock-down was calculated using Comparative Ct method:
ΔΔCt=ΔCt(Target siRNA)−ΔCt(NTC)
Relative expression level=2^−ΔΔCt
The non-targeting control siRNA was, unless otherwise indicated, chosen as the value against which to calculate the % knock-down, because it is the most relevant control.
The specificity of these siNAs was also assessed. […]

Substance | % KD Human (ASK1 mRNA [1]) [%] | % KD ASK-1 mRNA at 10 nM (ASK1 mRNA [1]) [%] | % KD ASK-1 10 nM (ASK1 mRNA [1]) [%] | % KD Mouse (ASK1 mRNA [2]) [%] | IC50 (ASK1 mRNA [3]) [pM] | % KD ASK-2 1 nM [4] [%]
25376-DC: siNA duplex, sense B GcAccAGAAAuAAuAGAuA TTB, antisense UAUcuAuuAuuucuGGuGcUU (SEQ ID NO: 33/34), human ASK1 target site 2900 (sense GCACCAGAAAUAAUAGAUATT; antisense UAUCUAUUAUUUCUGGUGCUU; chemistry not fully specified) | 89 ± 1 | 89 ± 1 | 89 ± 1 | 14 ± 18 | 14 ± 4 | 5 ± 12
25379-DC: siNA duplex, sense B cGAuGGAAAuucuAAAAAu TTB, antisense AUUuuuAGAAuuuccAucGUU (SEQ ID NO: 39/40), human ASK1 target site 4507 (sense CGAUGGAAAUUCUAAAAAUTT; antisense AUUUUUAGAAUUUCCAUCGUU; chemistry not fully specified) | 92 ± 0 | 92 ± 0 | 92 ± 0 | 4 ± 3 | 9 ± 2 | −6 ± 4
